From patent publication US8580297B2, “Components for producing amphoteric liposomes” (Marina Biotech, Inc., priority 2002, dated 2013)

Experiment: Zeta potential profile at varying pH of amphoteric liposomes (zero point = isoelectric point)
Type: physicochemical
Conditions: liposomes of 2 mg lipid and 10 mg DMPC; buffer 10 mM Kac, 10 mM HEPES, 150 mM NaCl; extruded 200 nm; value is a pH
Method: FIG. 1 is a graph showing a profile of the zeta potential in mV at varying pH values for the amphoteric liposomes prepared according to Example 4.
2 mg of the corresponding lipid and 10 mg of DMPC are dissolved in 4 ml of chloroform/methanol (1:1 v/v) and dried completely in a rotary evaporator. The lipid film is hydrated with 4.3 ml of buffer (10 mM Kac, 10 mM HEPES, 150 mM NaCl, pH 7.5) at a lipid concentration of 5 mM using ultrasonic treatment for 5 minutes. Finally, the suspension is frozen and, following thawing, subjected to multiple extrusions (Avestine LiposoFast, polycarbonate filter, pore width 200 nm). The profile of the zeta potential in mV at varying pH values is illustrated in FIG. 1. The zero point indicates the pH value at which the liposome is discharged. This pH corresponds to the isoelectric point of the lipid and is 4.5 for #8, 5.2 for #34, 5.7 for #25.

isoelectric point of the lipid (pH value at which the liposome is discharged, zero point of zeta potential) | SMILES
4.5 | CCCCCCCC/C=C\CCCCCCCC(=O)OCC(CN(CCC(=O)O)CCC(=O)O)OC(=O)CCCCCCC/C=C\CCCCCCCC (centres unmarked) [#8, N,N-bis(propanoic acid-3-yl)-N-(2,3-dioleoyloxypropyl)amine]
5.7 | CCCC(=O)OC(COC(=O)CC)OP(=O)(O)OCCNCCC(=O)NC(Cc1c[nH]cn1)C(=O)O (centres unmarked) [#25, phosphatidyl glycerylcarnosine]
